Tests used:
Assay type in all cases: functional
Mus musculus [1] = species: Mus musculus; assay: Tested for antagonism of nicotine-induced death (D) in mice
Mus musculus [2] = species: Mus musculus; assay: Tested for stereotyped gnawing and licking behavior of mice pretreated with apomorphine (AG)
Mus musculus [3] = species: Mus musculus; assay: Tested for potentiation of yohimbine toxicity in aggregated mice(Y)
Mus musculus [4] = species: Mus musculus; assay: Tested for potentiation of gamma-butyrolactone induced sleep (gamma-B) in mice
Mus musculus [5] = species: Mus musculus; assay: Tested for antagonism of oxotremorine hypothermia (OX) in mice
Mus musculus [6] = species: Mus musculus; assay: Tested for antagonism of pentylenetetrazole-induced clonic convulsions (P) in mice
Mus musculus [7] = species: Mus musculus; assay: Tested for antagonism of bicuculline-induced tonic-extensor convulsions (B) in mice
Mus musculus [8] = species: Mus musculus; assay: Prolongation of hypoxic survival time (HS) in mice
Mus musculus [9] = species: Mus musculus; assay: Tested for antagonism of nicotine-induced tonic extensor convulsions (TE) in mice

| Compound | ED50 (Mus musculus [1]) [mg/kg] | ED50 (Mus musculus [2]) [mg/kg] | ED50 (Mus musculus [3]) [mg/kg] | ED50 (Mus musculus [4]) [mg/kg] | ED50 (Mus musculus [5]) [mg/kg] | ED50 (Mus musculus [6]) [mg/kg] | ED50 (Mus musculus [7]) [mg/kg] | ED50 (Mus musculus [8]) [mg/kg] | ED50 (Mus musculus [9]) [mg/kg] |
| --- | --- | --- | --- | --- | --- | --- | --- | --- | --- |
| CCN(CC)OCc1nnc2n1-c1ccc(Cl)cc1C(c1ccccc1)=NC2 | 0.5 | > 50 | > 50 | 0.2 | 5.3 | 1.1 | 1.1 | 6.3 | 0.56 |
| Clc1ccc2c(c1)C(c1ccccc1)=NCc1nnc(CN3CCN(c4ccccc4)CC3)n1-2 | 159 | > 30 | > 30 | > 30 | > 30 | > 30 | > 30 | > 50 | 159 |
| CN(C)Cc1nnc2n1-c1ccccc1C(c1ccccc1)=NC2 | 2.8 | 3.1 | 35.4 | 6.2 | 12.5 | 6.2 | 50 | > 50 | 2.5 |
| C#CCNC(C)c1nnc2n1-c1ccc(Cl)cc1C(c1ccccc1)=NC2 (stereo unspecified) | 1.1 | > 50 | 21 | 0.8 | > 50 | 3.1 | 1.6 | 20 | 1.1 |
| CC(N)Cc1nnc2n1-c1ccc(Cl)cc1C(c1ccccc1)=NC2 (stereo unspecified) | 32 | 25 | 21 | 35 | 4.4 | > 50 | > 50 | > 50 | 18 |
| Clc1ccc2c(c1)C(c1ccccc1)=NCc1nnc(CNC3CC3)n1-2 | 0.28 | > 50 | > 50 | 1.1 | > 50 | 3.1 | 1.6 | 40 | 0.25 |
| C#CCNCc1nnc2n1-c1ccc(Cl)cc1C(c1ccccc1)=NC2 | 1.4 | > 50 | 21 | 0.7 | > 50 | 3.1 | 1.6 | 30 | 1.4 |
| NOCc1nnc2n1-c1ccc(Cl)cc1C(c1ccccc1)=NC2 | 0.08 | 42 | > 50 | 0.84 | 12.5 | 0.2 | 0.2 | 0.7 | 0.1 |
| NCCc1nnc2n1-c1ccc(Cl)cc1C(c1ccccc1Cl)=NC2 | 4.5 | 14.9 | > 50 | 21 | 29.7 | 21 | 25 | > 50 | 4.5 |
| CC(N)c1nnc2n1-c1ccc(Cl)cc1C(c1ccccc1)=NC2 (stereo unspecified) | 0.35 | > 50 | > 50 | 0.12 | > 50 | 0.6 | 0.6 | 3 | 0.3 |
| CN1CCN(Cc2nnc3n2-c2ccc(Cl)cc2C(c2ccccc2)=NC3)CC1 | 5 | > 100 | > 100 | 20 | > 100 | 100 | 100 | 50 | 4.5 |
| Clc1ccc2c(c1)C(c1ccccc1)=NCc1nnc(CNCC3CC3)n1-2 | 0.2 | > 50 | 50 | 1.3 | > 50 | 3.1 | 1.9 | 1 | 0.2 |
| CN1C(=O)CN=C(c2ccccc2)c2cc(Cl)ccc21 [DIAZEPAM] | 0.28 | > 50 | > 50 | 0.035 | > 50 | 0.1 | 2.6 | 0.2 | 0.28 |
| CC(c1nnc2n1-c1ccc(Cl)cc1C(c1ccccc1)=NC2)N(C)C (stereo unspecified) | 5 | 21 | 17.7 | 17.7 | 10.5 | 17.7 | 12.5 | > 50 | 5 |
| CN(Cc1nnc2n1-c1ccc(Cl)cc1C(c1ccccc1)=NC2)CC1CC1 | 0.6 | > 50 | > 50 | 1.1 | > 50 | 3.1 | 2.6 | 30 | 0.4 |
| CN(C)CCc1nnc2n1-c1ccc(Cl)cc1C(c1ccccc1Cl)=NC2 | 0.28 | 6.3 | 29.7 | 0.4 | > 50 | 0.3 | 0.5 | 1.3 | 0.28 |
| CN(C)Cc1nnc2n1-c1ccc(Cl)cc1C(c1ccccc1)NC2 (stereo unspecified) | 25 | > 50 | > 50 | 5.3 | > 50 | 14.9 | 42 | > 50 | 25 |
| CN(Cc1nnc2n1-c1ccc(Cl)cc1C(c1ccccc1)=NC2)C1CC1 | 0.28 | > 50 | > 50 | 1.9 | > 50 | 3.7 | 3.1 | 6 | 0.55 |
| C#CCN(C)Cc1nnc2n1-c1ccc(Cl)cc1C(c1ccccc1Cl)=NC2 | 0.045 | 21 | > 50 | 0.1 | > 50 | 0.021 | 0.1 | 0.4 | 0.036 |
| Clc1ccc2c(c1)C(c1ccccc1)=NCc1nnc(CCCN3CCCC3)n1-2 | 16 | 25 | 42 | 35.4 | > 50 | 4.4 | > 50 | > 50 | 14 |
| Clc1ccc2c(c1)C(c1ccccc1)=NCc1nnc(CN3CCCC3)n1-2 | 4.5 | 14.9 | 100 | 7.4 | 56 | 17.7 | 12.5 | 2 | 3.6 |
| C=CCN(C)Cc1nnc2n1-c1ccc(Cl)cc1C(c1ccccc1)=NC2 | 1.1 | > 50 | > 50 | 1.6 | > 50 | 4.4 | 3.7 | > 50 | 1.1 |
| Clc1ccc2c(c1)C(c1ccccc1)=NCc1nnc(CCCN3CCOCC3)n1-2 | 5.6 | > 50 | > 50 | 10 | > 50 | 10 | 7.1 | 7 | 5.6 |
| C=CCNCc1nnc2n1-c1ccc(Cl)cc1C(c1ccccc1)=NC2 | 0.28 | > 50 | > 50 | 1.9 | > 50 | 3.7 | 3.1 | 6 | 0.55 |
